Experimental data from ChEMBL document CHEMBL4673396, “Structural Basis for Targeting the Folded P-Loop Conformation of c-MET” (ACS Med Chem Lett, 2021).

Assay: Lipophilicity, logD of the compound in octanol and water at pH 7.4 by shake-flask method
Format: physicochemical

Structure (SMILES)	logD
Fc1ccc(Cc2c[nH]c3ncc(-c4cnn(C5CCNCC5)c4)cc23)cc1	2.4
O=C1NCc2c(-c3cnc4[nH]cc(Cc5ccccc5)c4c3)c[nH]c21	4
c1ccc(Cc2c[nH]c3ncc(-c4cnn(C5CCNCC5)c4)cc23)cc1	2.31
Fc1ccccc1Cc1c[nH]c2ncc(-c3cnn(C4CCNCC4)c3)cc12	2.5
Fc1cccc(Cc2c[nH]c3ncc(-c4cnn(C5CCNCC5)c4)cc23)c1	2.4
